Experiments:
[1] = biological target: T1, human μ opiate receptor (Homo sapiens, UniProt P35372); assay: Affinity for the human μ opiate receptor ([3H]-naloxone displacement, CHO-K1 receptor membrane preparation, SPA); assay type: binding; conditions: test concentration of 1 μM
T1 construct: purchased PerkinElmer Life Sciences, Zaventem, Belgium RB-HOM; host or cells: CHO-K1 cells (membrane preparation)
Summary of the method: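 CHO-K1 membranes expressing human μ receptor incubated 90 min at room temperature with 1 nmol/l [3H]-naloxone and WGA-SPA beads in 50 mmol/l Tris-HCl, 0.06% BSA; 100 μmol/l naloxone defines non-specific binding. Values are % inhibition of specific binding at 1 μM; IC50 converted to Ki by Cheng-Prusoff.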

[2] = biological target: T2, serotonin (5-HT) reuptake (Rattus norvegicus, UniProt P31652); assay: Inhibition of serotonin (5HT) reuptake in synaptosomes from rat brain; assay type: biochemical; conditions: test concentration of 10 μM
T2 construct: synaptosomes are freshly isolated from areas of the rat brain; from tissue; host or cells: rat brain synaptosomes (P2 fraction)
T2 sequence (P31652 whole entry): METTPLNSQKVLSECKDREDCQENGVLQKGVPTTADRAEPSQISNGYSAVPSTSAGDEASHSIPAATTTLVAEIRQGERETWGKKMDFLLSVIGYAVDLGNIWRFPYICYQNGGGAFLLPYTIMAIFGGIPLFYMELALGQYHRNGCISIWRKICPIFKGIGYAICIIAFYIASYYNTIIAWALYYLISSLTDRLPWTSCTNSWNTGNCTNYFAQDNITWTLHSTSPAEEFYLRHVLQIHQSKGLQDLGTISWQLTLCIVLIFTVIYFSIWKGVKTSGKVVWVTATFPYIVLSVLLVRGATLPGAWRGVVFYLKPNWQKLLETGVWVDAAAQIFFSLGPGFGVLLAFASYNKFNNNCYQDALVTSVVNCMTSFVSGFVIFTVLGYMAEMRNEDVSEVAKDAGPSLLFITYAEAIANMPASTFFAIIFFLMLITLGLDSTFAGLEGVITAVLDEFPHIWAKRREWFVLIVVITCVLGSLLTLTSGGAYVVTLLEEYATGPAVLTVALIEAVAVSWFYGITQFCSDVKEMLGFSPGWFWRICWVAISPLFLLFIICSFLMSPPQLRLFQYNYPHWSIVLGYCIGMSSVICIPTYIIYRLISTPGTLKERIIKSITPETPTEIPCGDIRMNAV
Summary of the method: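 Freshly isolated rat brain synaptosomes (P2 fraction) used for 5-HT reuptake. Test compound at 10 μM, activity given as % inhibition.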

T1 sequence (P35372 whole entry): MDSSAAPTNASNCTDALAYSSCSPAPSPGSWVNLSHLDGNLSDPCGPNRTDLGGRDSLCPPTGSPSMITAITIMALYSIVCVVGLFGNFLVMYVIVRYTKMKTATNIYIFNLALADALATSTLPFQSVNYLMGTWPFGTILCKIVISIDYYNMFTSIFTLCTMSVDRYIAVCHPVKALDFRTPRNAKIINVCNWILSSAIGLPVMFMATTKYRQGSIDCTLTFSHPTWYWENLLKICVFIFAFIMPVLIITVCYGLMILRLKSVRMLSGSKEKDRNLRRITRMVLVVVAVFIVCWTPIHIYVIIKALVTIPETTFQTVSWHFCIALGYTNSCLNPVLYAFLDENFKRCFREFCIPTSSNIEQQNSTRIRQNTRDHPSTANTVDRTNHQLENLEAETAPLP

SMILES: CN(C)C(c1ccc(F)cc1)C1CCC(CCNC(=O)COCC2CCCN(S(=O)(=O)c3ccccc3)C2)CC1 (centres unmarked) [Example 479]
- μ (binding on the μ opioid receptor, % inhibition) [1]: 42%
- 5-HT (inhibition of reuptake of serotonin, % inhibition) [2]: 97%

SMILES: Cc1ccc(S(=O)(=O)N2CCC(OCC(=O)NCCC3CCC(C(c4ccc(F)cc4)N(C)C)CC3)C2)cc1 (centres unmarked) [Example 491]
- μ (binding on the μ opioid receptor, % inhibition) [1]: 34%
- 5-HT (inhibition of reuptake of serotonin, % inhibition) [2]: 90%

SMILES: COc1cc(C)c(S(=O)(=O)N2CCN(CCOCC(=O)NCC3CCC(C(CCc4ccccc4)N(C)C)CC3)CC2)c(C)c1C (centres unmarked) [Example 528]
- μ (binding on the μ opioid receptor, % inhibition) [1]: 34%
- 5-HT (inhibition of reuptake of serotonin, % inhibition) [2]: 94%

SMILES: CN(C)C(c1ccc(F)cc1)C1CCC(CNC(=O)COC2CCCN(S(=O)(=O)c3ccccc3)C2)CC1 (centres unmarked) [Example 488]
- μ (binding on the μ opioid receptor, % inhibition) [1]: 40%
- 5-HT (inhibition of reuptake of serotonin, % inhibition) [2]: 94%

From US8106055B2, “Substituted amide compounds” (Gruenenthal GmbH, priority 2007, dated 2012)
